Laboratory results as given in patent US20100056526A1, “HETEROMONOCYCLIC COMPOUND AND USE THEREOF” (Takeda Pharmaceutical Company Limited, priority 2006, published 2010).
Where two headings read alike, the source gives them in different places.

What was measured:
PPARγ = target: T1, PPARγ (Homo sapiens, UniProt P37231); test: Evaluation of PPARγ activating action (luciferase reporter in PPARγ:RXRα:4ERPP/CHO-K1 cells); type: cell-based; conditions: CHO-K1, 24 h, read-out: PPARγ activating action (activation % (10^−6 M))
T1 construct: expressed in transfected cells; host or cells: CHO-K1
T1 sequence (P37231 1-477 isoform P37231-2): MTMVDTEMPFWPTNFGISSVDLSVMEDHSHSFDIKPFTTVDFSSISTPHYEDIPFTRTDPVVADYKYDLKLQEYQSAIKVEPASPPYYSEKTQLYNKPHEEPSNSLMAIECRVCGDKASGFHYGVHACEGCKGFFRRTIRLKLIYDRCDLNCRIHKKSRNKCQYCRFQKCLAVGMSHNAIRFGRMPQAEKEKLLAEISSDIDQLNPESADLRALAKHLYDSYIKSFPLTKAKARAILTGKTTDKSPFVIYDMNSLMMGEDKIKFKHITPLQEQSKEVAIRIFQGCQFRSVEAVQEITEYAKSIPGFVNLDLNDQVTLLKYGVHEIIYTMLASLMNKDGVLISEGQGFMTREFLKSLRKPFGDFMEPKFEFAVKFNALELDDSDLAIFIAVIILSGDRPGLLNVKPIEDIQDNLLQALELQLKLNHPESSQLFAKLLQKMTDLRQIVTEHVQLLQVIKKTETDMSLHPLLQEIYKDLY
T1 sequence (P19793 1-462 partner): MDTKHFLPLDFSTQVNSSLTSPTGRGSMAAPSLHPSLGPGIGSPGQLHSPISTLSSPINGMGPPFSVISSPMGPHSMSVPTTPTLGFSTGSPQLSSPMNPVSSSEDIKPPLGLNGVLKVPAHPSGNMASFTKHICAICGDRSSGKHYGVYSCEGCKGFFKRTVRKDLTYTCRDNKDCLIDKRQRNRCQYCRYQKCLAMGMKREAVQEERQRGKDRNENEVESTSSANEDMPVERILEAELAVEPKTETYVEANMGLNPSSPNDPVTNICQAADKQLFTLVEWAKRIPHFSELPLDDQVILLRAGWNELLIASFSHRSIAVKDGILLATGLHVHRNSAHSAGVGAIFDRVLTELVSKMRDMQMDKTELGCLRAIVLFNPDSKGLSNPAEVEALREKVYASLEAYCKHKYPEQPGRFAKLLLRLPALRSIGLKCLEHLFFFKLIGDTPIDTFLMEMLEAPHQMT
Protocol: PPARγ:RXRα:4ERPP/CHO-K1 cells obtained in the following Reference Example 5 were cultured in F12 medium [manufactured by INVITROGEN, USA] containing 10% fetal bovine serum [manufactured by MOREGATE, Australia], seeded in a 96-well half area white plate [manufactured by Corning Coster Corporation, USA] at the density of 5×10^3 cells/well and cultured in a CO2 gas incubator at 37° C. overnight.
Then the medium was removed from the 96-well half area white plate, 45 μl of Ham's F12 medium containing 0.1% fatty acid-free bovine serum albumin (BSA) and 5 μl of test compound were added, and the cells were cultured in a CO2 gas incubator at 37° C. for 1 day. The medium was removed and 20 μl of PicaGene 7.5 [manufactured by TOYO INK MFG. CO., LTD.,.Japan] diluted 2-fold with HBSS (HANKS' BALANCED SALT SOLUTION) [manufactured by BIO WHITTAKER, USA] was added. After stirring, the luciferase activity was determined using 1420 ARVO Multilabel Counter [manufactured by PerkinElmer, USA].
The percent (%) was calculated from the luciferase activity of each test compound when the luciferase activity of the control compound (compound X: 5-[3-(4-{[2-(2-furyl)-5-methyl-1,3-oxazol-4-yl]methoxy}-3-methoxyphenyl)propyl]-1,3-oxazolidine-2,4-dione) (1 μM) was 100% and that of the test compound non-administration group was 0%.
A CHO-K1 cell cultured in a 150 cm^2 cell culture flask [manufactured by Corning Costar Corporation, USA] containing Ham's F12 medium [manufactured by INVITROGEN, USA] supplemented with 10% fetal bovine serum [manufactured by INVITROGEN, USA] was scraped by treating with 0.5 g/L trypsin-0.2 g/L EDTA (ethylenediaminetetraacetic acid) [manufactured by Life Technologies, Inc., USA], and then the cell was washed with PBS (Phosphate-buffered saline) [manufactured by INVITROGEN, USA], centrifuged (1000 rpm, 5 minutes) and suspended in PBS. Subsequently, DNA was introduced into the cell under the conditions shown below using GENE PULSER [manufactured by Bio-Rad Laboratories, USA].
Namely, to a cuvette having a 0.4 cm gap were added 8×10^6 cells and 10 μg of plasmid pVgRXR2-hPPARγ obtained in Reference Example 4 and 10 μg of reporter plasmid pGL3-4ERPP-TK neo obtained in Reference Example 3, which was subjected to electroporation at the voltage of 0.25 kV under the capacitance of 960 μF. Subsequently, the cell was transferred into a F12 medium containing 10% fetal bovine serum and cultured for 24 hours, and then the cell was scraped again and centrifuged, and then suspended in Ham's F12 medium containing 10% fetal bovine serum supplemented with 500 μg/ml of Geneticin [manufactured by INVITROGEN, USA] and 250 μg/ml of Zeocin [manufactured by INVITROGEN, USA]. The obtained suspension was diluted to the density of 10^4 cells/ml and inoculated in a 96-well plate [manufactured by Corning Costar Corporation, USA], which was cultured in a CO2 gas incubator at 37° C., whereby obtaining a Geneticin- and Zeocin-resistant transformant.
Subsequently, after the transformant cell line thus obtained was cultured in a 24-well plate [manufactured by Corning Costar Corporation, USA], a cell line in which the luciferase was expressed and induced, i.e., PPARγ:RXRα:4ERPP/CHO-K1 cell was selected by the addition of 10 μM pioglitazone hydrochloride.

human AT1 receptor = target: T2, human AT1 receptor (Homo sapiens, UniProt P30556); test: Binding assay using human AT1 receptor-expressing CHO-K1 cell membrane fraction ([125I]-angiotensin II); conditions: 22.5 pM [125I]-angiotensin II, 9 μg AT1 membrane, 1 hr room temperature; read-out: AT1 receptor binding inhibitory action (IC50 (nM))
T2 construct: expressed in transfected cells; host or cells: CHO-K1
T2 sequence (P30556 1-359): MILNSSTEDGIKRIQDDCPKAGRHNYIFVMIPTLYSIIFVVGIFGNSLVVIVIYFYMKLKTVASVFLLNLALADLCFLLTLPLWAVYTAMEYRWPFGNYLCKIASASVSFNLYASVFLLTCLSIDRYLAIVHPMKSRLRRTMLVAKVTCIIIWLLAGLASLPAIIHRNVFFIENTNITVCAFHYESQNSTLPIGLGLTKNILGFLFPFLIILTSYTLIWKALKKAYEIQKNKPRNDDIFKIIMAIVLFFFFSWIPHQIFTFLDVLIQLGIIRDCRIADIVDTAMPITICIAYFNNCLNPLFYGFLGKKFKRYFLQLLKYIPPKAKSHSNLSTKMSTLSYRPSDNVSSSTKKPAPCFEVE
Protocol: The membrane fraction for human AT1 receptor binding assay was prepared as follows. CHO-K1 cell capable of stable expression of human AT1 receptor was cultured, recovered, suspended in homogenize buffer (10 mM NaHCO3 (pH 7.4), 5 mM EDTA, 1×Complete EDTA free) [manufactured by Roche, Switzerland], and homogenized. The homogenate was centrifuged at low-speed (900×g, 10 min, 4° C.), and the supernatant was recovered and ultracentrifuged (90,000×g, 1 hr, 4° C.). The supernatant was discarded, and the pellets were resuspended in resuspension buffer (50 mM Tris (pH 7.4), 1 mM EDTA, 1×Complete EDTA free).
The binding assay was performed in the presence of 22.5 pM [^125I]-angiotensin II [manufactured by PerkinElmer, USA], 9 μg of AT1 membrane and test compound in 100 μL (total reaction volume) of reaction buffer (50 mM Tris (pH 7.4), 10 mM MgCl2 supplemented or not supplemented with 0.3 mg/mL fatty acid-free bovine serum albumin [manufactured by Wako Pure Chemical Industries, Ltd., Japan]). The reaction mixture was incubated in 96 well polypropylene plate for 1 hr at room temperature, and the reaction was quenched by rapid filtration (96 well cell harvester) through a GF/C filter treated with wash buffer (50 mM Tris (pH 7.4)). Subsequently, the filter was washed 5 times with 0.3 mL of ice-cooled wash buffer. The filter was air-dried, and [^125I]-angiotensin II binding radioactivity was assayed with Top Count scintillation counter. Total binding was measured in the presence of 1% DMSO and nonspecific binding was measured in the presence of 1 μM CV-11974. The binding data was analyzed by GraphPad Prism program and the IC50 value (compound concentration showing 50% of the maximum value of inhibition percent) of the test compound was calculated.

[1] = test compound 10^−6 M, luciferase activity relative to control compound X (1 μM) = 100%, non-administration group = 0%

Structure (SMILES)	activation at 1 µM (PPARγ; [1]) [%]	IC50 (human AT1 receptor) [nM]	activation at 1 µM (PPARγ) [%]
CCCCc1nc(C)n(Cc2ccc(OC)cc2)c(=O)c1Cc1ccc(-c2ccccc2-c2noc(=O)[nH]2)cc1 [Example 58, 6-butyl-3-(4-methoxybenzyl)-2-methyl-5-{[2′-(5-oxo-4,5-dihydro-1,2,4-oxadiazol-3-yl)biphenyl-4-yl]methyl}pyrimidin-4(3H)-one]	55.1	1.5	
CCCCc1nc(C)n(Cc2nc3ccccc3s2)c(=O)c1Cc1ccc(-c2ccccc2-c2noc(=O)[nH]2)cc1 [Example 64, 3-(1,3-benzothiazol-2-ylmethyl)-6-butyl-2-methyl-5-{[2′-(5-oxo-4,5-dihydro-1,2,4-oxadiazol-3-yl)biphenyl-4-yl]methyl}pyrimidin-4(3H)-one]	59.9	2	
CCCCc1nc(C)n(C(C)c2ccccc2)c(=O)c1Cc1ccc(-c2ccccc2-c2noc(=O)[nH]2)cc1 (stereo not shown) [Example 67, 6-butyl-2-methyl-5-{[2′-(5-oxo-4,5-dihydro-1,2,4-oxadiazol-3-yl)biphenyl-4-yl]methyl}-3-(1-phenylethyl)pyrimidin-4(3H)-one]	49.4	2	
CCCCc1nc(C)n(Cc2ccc(OC)nc2)c(=O)c1Cc1ccc(-c2ccccc2-c2noc(=O)[nH]2)cc1 [Example 71, 6-butyl-3-[(6-methoxypyridin-3-yl)methyl]-2-methyl-5-{[2′-(5-oxo-4,5-dihydro-1,2,4-oxadiazol-3-yl)biphenyl-4-yl]methyl}pyrimidin-4(3H)-one]	46.3	1.8	
CCCc1nc(C)n(CC2CCCCO2)c(=O)c1Cc1ccc(-c2ccccc2-c2noc(=O)[nH]2)cc1 (stereo not shown) [Example 81, 2-methyl-5-{[2′-(5-oxo-4,5-dihydro-1,2,4-oxadiazol-3-yl)biphenyl-4-yl]methyl}-6-propyl-3-(tetrahydro-2H-pyran-2-ylmethyl)pyrimidin-4(3H)-one]	62.9	1.6	
CCCc1nc(C)n(-c2ccc(OC(C)C)cc2)c(=O)c1Cc1ccc(-c2ccccc2-c2noc(O)n2)cc1 [Example 88, 3-(4-isopropoxyphenyl)-2-methyl-5-{[2′-(5-oxo-4,5-dihydro-1,2,4-oxadiazol-3-yl)biphenyl-4-yl]methyl}-6-propylpyrimidin-4(3H)-one]	31.2	1.7	
CCCCc1nc(C)n(CCc2ccc(OC)cc2)c(=O)c1Cc1ccc(-c2ccccc2-c2noc(=O)[nH]2)cc1 [Example 94, 6-butyl-3-[2-(4-methoxyphenyl)ethyl]-2-methyl-5-{[2′-(5-oxo-4,5-dihydro-1,2,4-oxadiazol-3-yl)biphenyl-4-yl]methyl}pyrimidin-4(3H)-one]	41.5	1.8	
CCCCc1nc(CF)n(Cc2ccccc2)c(=O)c1Cc1ccc(-c2ccccc2-c2noc(=O)[nH]2)cc1 [Example 103, 3-benzyl-6-butyl-2-(fluoromethyl)-5-{[2′-(5-oxo-4,5-dihydro-1,2,4-oxadiazol-3-yl)biphenyl-4-yl]methyl}pyrimidin-4(3H)-one]	50.2	1.5	
CCCCc1nc(CC)n(Cc2ccccc2)c(=O)c1Cc1ccc(-c2ccccc2-c2noc(=O)[nH]2)cc1 [Example 105, 3-benzyl-6-butyl-2-ethyl-5-{[2′-(5-oxo-4,5-dihydro-1,2,4-oxadiazol-3-yl)biphenyl-4-yl]methyl}pyrimidin-4(3H)-one]		1.9	64.1
CCCCc1nc(OC)n(Cc2ccccc2)c(=O)c1Cc1ccc(-c2ccccc2-c2noc(=O)[nH]2)cc1 [Example 107, 3-benzyl-6-butyl-2-methoxy-5-{[2′-(5-oxo-4,5-dihydro-1,2,4-oxadiazol-3-yl)biphenyl-4-yl]methyl}pyrimidin-4(3H)-one]	60	2	
CCCCc1nc(OC)n(-c2ccccc2)c(=O)c1Cc1ccc(-c2ccccc2-c2noc(=O)[nH]2)cc1 [Example 108, 6-butyl-2-methoxy-5-{[2′-(5-oxo-4,5-dihydro-1,2,4-oxadiazol-3-yl)biphenyl-4-yl]methyl}-3-phenylpyrimidin-4(3H)-one]	31.7	2.2	
